Structures can show the parent of a compound that is named as a salt.
Assay: Purity of the aerosol versus drug foil temperature (Method 2)
Type: physicochemical
Conditions: Devices A, 1.0 mg coated
Description: Solutions were analysed by UPLC with water (ammonium formate/formic acid) and acetonitrile as mobile phase using UV detection at 275 nm as acquisition wavelength.
This method is based on the US Pharmacopeia “Sampling the Delivered Dose from Metered-Dose Inhalers” of the “Metered-Dose Inhalers and Dry Powder Inhalers” section.
The mouthpiece of the device to be tested was tightly attached to a mouthpiece adapter connected to an end of a 12 cm sample connection tube which at the other end has attached a filter support cap having a ø 47 mm, 2.2 μm pore size, quartz filter (QM-A, Whatman) which was connected to a pump to create an airflow which triggers the flow sensor and the foil substrate is heated.
The material in the filter and the sample connection tube was extracted with methanol and analysed as in Method 1.
The foil substrates of Devices A were coated with 1.0 mg of apomorphine HCl and tested as in Method 2 at different drug foil temperatures (2 devices per temperature point except 310° C. where 4 devices were used). The devices are triggered at a 30 mL/min airflow.

CN1CCc2cccc3c2[C@H]1Cc1ccc(O)c(O)c1-3 [apomorphine HCl]
TAerosol purity (drug foil 260 °C): 98.4 ± 0.6% | TAerosol purity (drug foil 290 °C): 96.4 ± 0.9% | TAerosol purity (drug foil 310 °C): 95 ± 1% | TAerosol purity (drug foil 320 °C): 90.9 ± 0.8%

Source: patent US20240408325A1, “HANDHELD MEDICAL DEVICE WITH IMPROVED DELIVERY OF AEROSOL PARTICLES” (ALEXZA PHARMACEUTICALS, INC., priority 2021, published 2024)
